{
  "source": "patent US11656230B2",
  "about": "“Method for predicting cancer sensitivity” (Eutropics Pharmaceuticals, Inc., priority 2013, dated 2023)",
  "key": {"[1]": {"target": "Bcl-XL/BIM-BH3 heterodimer (Homo sapiens, UniProt Q07817)", "sequence (Q07817 whole entry, the tested form may be a part, one chain of several)": "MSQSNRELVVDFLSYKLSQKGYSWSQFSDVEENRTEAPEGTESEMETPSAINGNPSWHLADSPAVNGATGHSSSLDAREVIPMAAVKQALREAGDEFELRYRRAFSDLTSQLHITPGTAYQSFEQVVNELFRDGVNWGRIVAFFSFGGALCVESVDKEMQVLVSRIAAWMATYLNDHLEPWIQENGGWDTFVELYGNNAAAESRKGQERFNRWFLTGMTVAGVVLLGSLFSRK", "experiment": "ELISA: inhibition of HSBXB binding to non-covalent Bcl-XL-GST/BIM-BH3 heterodimer by ABT-263", "details": "heterodimers formed with BIM peptide on Glutathione-coated ELISA plates; compound added after peptides and before monoclonal antibody; FIG. 15", "experimental": "The compound was added to the ELISA plates after addition of peptides and before adding the monoclonal antibody. The Bib BH3 domain peptide was added as a negative control.\nABT-263 disrupts Bcl-2/Bcl-xL interactions with pro-death proteins (e.g., Bim), leading to the initiation of apoptosis within 2 hours post treatment (Tse et al., 2008)."}, "[2]": {"target": "Bcl-XL/BIM heterodimer in SKBR3 cells (Homo sapiens, UniProt Q07817)", "sequence (Q07817 whole entry, one chain of several)": "as the sequence (Q07817 whole entry, the tested form may be a part, one chain of several) above", "experiment": "Near-infrared imaging of HSBXB binding in paraformaldehyde fixed cells incubated with ABT-263", "type": "cell-based", "details": "different concentrations of ABT-263, FIG. 17", "from_the_text": "IRDye 800CW goat anti-mouse antibody was used for detecting the heterodimer specific mouse monoclonal antibody and IRDye 800CW Goat anti-rabbit antibody was used to detect the commercial Bcl-XL rabbit monoclonal antibody. […] The detection system uses near-infrared (IR) fluorophores (670-1100 nm) that have a distinct advantage over visible dyes, in that very low background fluorescence at longer wavelengths provides an excellent signal-to-noise ratio. […] In this system antibodies labeled with IR dyes at different wavelengths are used for detection of multiple targets. The imager simultaneously detects two distinct wavelengths. A scanning optical assembly carries two laser diodes that generate excitation light at 680 and 780 nm, as well as two avalanche photodiodes, which detect emitted fluorescence at 720 and 820 nm. […] IRDye 800CW goat anti-mouse antibody was used for detecting the heterodimer specific mouse monoclonal antibody and IRDye 800CW Goat anti-rabbit antibody was used to detect the commercial Bcl-XL rabbit monoclonal antibody."}, "[3]": {"target": "Bcl-xL/Bim heterodimer in JEKO-1 cells (Homo sapiens, UniProt Q07817)", "sequence (Q07817 whole entry, one chain of several)": "as the sequence (Q07817 whole entry, the tested form may be a part, one chain of several) above", "experiment": "Flow cytometry (FACS), intracellular staining with HSBXB antibody", "type": "cell-based", "details": "10 uM, 3 hours on ice, clone 32 at 10 ug/ml, FIG. 18", "from_the_text": "As a positive control we pretreated with the Bim BH3 peptide at a concentration that achieve saturated binding to the endogenous Bcl-XL. […] To enhance staining and to establish a positive control we added saturating amount of the Bim BH3 peptide to partially lysed cells. As a negative control we pretreated with BH3 mimetic compound, ABT 263 to displace Bim from Bcl-xL. In this experiment 5×10e6 JEKO 1 cells were suspended in Newmeyer buffer (Ryan et al Proc Natl Acad Sci USA 2010; 107:12895-900), digitonin (Sigma-Aldrich, St Louis Mo.) and treated with 100 uM Bim BH3 peptide; or ABT263 compound at 10 uM; or not treated. Cells were incubated on ice for 3 hours, and then washed and treated with clone 32 at 10 ug/ml for 20 minutes, washed again and stained with secondary goat anti-mouse IgG alexa-488. An IgG-2A isotype control was also prepared and run in parallel. Samples are analyzed on a FACS Canto II (BD Biosciences, San Jose Calif.) using the BD FACS Diva software."}, "[4]": {"tested_on": "mitochondrial outer membrane permeabilization (MOMP)", "experiment": "Mitochondrial profiling assay (MOMP)", "type": "cell-based", "details": "mitochondrial profiling assay (unpublished data)", "from_the_text": "In one embodiment, this can be determined by measuring the mitochondrial outer membrane permeabilization (MOMP), which increases when a cell is about to undergo apoptosis. Mitochondrial outer membrane permeabilization can be measured for example, using the potentiometric dye JC-1 or dihydrorhodamine. MOMP can be measured using standard techniques known in the art, including those described in Bogenberger et al. (Leukemia et al. (2014) which is herein incorporated by reference in its entirety). In a non-limiting example, cells are permeabilized and incubated with a mitochondrial dye (e.g. JC-1 or dihydrorhodamine 123) and BH3 peptides with dimethyl sulfoxide or carbonyl cyanide m-chlorophenyl hydrazone (CCCP) and the degree of staining is measured. […] As a positive control we pretreated with the Bim BH3 peptide at a concentration that achieve saturated binding to the endogenous Bcl-XL. This treatment is routinely used as a positive control for complete mitochondrial priming in our mitochondrial profiling AML test. […] To enhance staining and to establish a positive control we added saturating amount of the Bim BH3 peptide to partially lysed cells. […] Samples are analyzed on a FACS Canto II (BD Biosciences, San Jose Calif.) using the BD FACS Diva software."}, "[5]": {"tested_on": "Bcl-2/Bcl-xL interactions with pro-death proteins (e.g., Bim)", "details": "Tse et al., 2008; cited from earlier work"}},
  "data": [
    {"smiles": "CC1(C)CCC(c2ccc(Cl)cc2)=C(CN2CCN(c3ccc(C(=O)NS(=O)(=O)c4ccc(N[C@H](CCN5CCOCC5)CSc5ccccc5)c(S(=O)(=O)C(F)(F)F)c4)cc3)CC2)C1", "note": "[ABT-263, Navitoclax]", "values": [
      {"measurement": "inhibition of heterodimer antibody signal", "setting": "[1]", "value": "dose-dependent inhibition of heterodimer antibody signal"},
      {"measurement": "displacement of Bcl-xL bound BIM BH3 peptide detected by HSBXB", "setting": "[2]", "value": "displacement of the Bcl-xL bound BIM BH3 peptide is detected"},
      {"measurement": "displacement of Bim from Bcl-xL by flow cytometry using HSBXB antibody", "setting": "[3]", "value": "this displacement in measurable by flow cytometry"},
      {"measurement": "MOMP on displacement of Bim", "setting": "[4]", "value": "results in MOMP"},
      {"measurement": "time to initiation of apoptosis post treatment", "setting": "[5]", "value": "≤ 2", "unit": "h"}
    ]}
  ]
}
